What is called IC50 is the concentration needed to halve the response being measured.

This assay concerns PC-3 cells (human prostate cancer cell line). As to the kind of experiment: Cytotoxic activity, MTT cell viability assay against PC-3 cell line. It counts as cell-based. As to conditions: read-out: Cytotoxcity activity IC50. How it is done: Cytotoxic activity of L. adscendens aerial part fractions were tested in vitro using MTT cell viability assay as previously described. Briefly, in each well plate 100 µL of fresh culture RPMI 1640 medium without phenol red then 10 µL of the 12 mM MTT stock solution (5 mg of MTT in 1 mL of PBS) were added to each well. An 85 µL aliquot of the incubated media was replaced by 50 µL of DMSO and incubated at 37 °C for 10 min. The optical density was measured at 590 nm with the microplate reader to determine the number of viable cells and the percentage of viability was calculated as the percentage of cell survival was calculated as follows: Surviving fraction=O.D.treated cells/O.D.control cells∗100
Background: Tetrazolium dyes change colour on reduction, which living cells bring about.

The structures appear in SMILES notation. In brackets after ≈: the same amount, converted by molar mass.

As to `COc1cccc2c1C(=O)c1c(O)c3c(c(O)c1C2=O)C[C@@](O)(C(=O)CO)C[C@@H]3O[C@H]1C[C@H](N)[C@H](O)[C@H](C)O1` [Doxorubicin], the IC50 is 34.9 ± 5.21 µg/mL (≈ 64.2 µM).
